Results published in US10174016B2 (BAYER AKTIENGESELLSCHAFT, priority 2014, dated 2019).
Where two headings read alike, the source gives them in different places.

Assays:
[1] = target: human P2X2/3 receptor (Homo sapiens (Human), UniProt P56373+Q9UBL9); experiment: Intracellular calcium measurement (FLIPR, Fluo-4) of antagonist activity at human P2X2/3 receptors; type: cell-based; conditions: human P2X2/3, FLIPR calcium assay, agonist α,β-Me-ATP; read-out: hP2X2/3 IC50
In short: (§1)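 Cells expressing human P2X3 or P2X2/3, loaded with Fluo-4, preincubated 30 min at 37° C. with compound (1% DMSO final), then challenged with α,β-Me-ATP at its EC80. Peak FLIPR fluorescence over 90 sec gave % response; IC50, maximal inhibition and Hill slope from triplicates.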

[2] = target: human P2X3 receptor (Homo sapiens (Human), UniProt P56373); experiment: Intracellular calcium measurement (FLIPR, Fluo-4) of antagonist activity at human P2X3 receptors; type: cell-based; conditions: read-out: hP2X3 IC50
Sequence of human P2X3 receptor (P56373 whole entry): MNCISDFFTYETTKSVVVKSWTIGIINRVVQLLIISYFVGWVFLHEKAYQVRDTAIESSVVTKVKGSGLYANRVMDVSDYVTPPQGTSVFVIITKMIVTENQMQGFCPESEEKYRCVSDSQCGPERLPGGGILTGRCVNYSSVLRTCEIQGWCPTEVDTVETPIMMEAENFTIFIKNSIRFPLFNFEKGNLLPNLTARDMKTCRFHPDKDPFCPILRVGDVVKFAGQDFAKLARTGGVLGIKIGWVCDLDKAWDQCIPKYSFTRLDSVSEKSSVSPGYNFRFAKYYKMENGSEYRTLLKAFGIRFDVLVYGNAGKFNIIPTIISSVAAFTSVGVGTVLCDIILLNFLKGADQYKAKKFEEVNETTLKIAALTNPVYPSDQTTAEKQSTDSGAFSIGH
In short: as §1

[3] = human P2X3, FLIPR calcium assay, agonist α,β-Me-ATP

Sequence of human P2X2/3 receptor (P56373 whole entry): as above
Sequence of human P2X2/3 receptor (Q9UBL9 whole entry): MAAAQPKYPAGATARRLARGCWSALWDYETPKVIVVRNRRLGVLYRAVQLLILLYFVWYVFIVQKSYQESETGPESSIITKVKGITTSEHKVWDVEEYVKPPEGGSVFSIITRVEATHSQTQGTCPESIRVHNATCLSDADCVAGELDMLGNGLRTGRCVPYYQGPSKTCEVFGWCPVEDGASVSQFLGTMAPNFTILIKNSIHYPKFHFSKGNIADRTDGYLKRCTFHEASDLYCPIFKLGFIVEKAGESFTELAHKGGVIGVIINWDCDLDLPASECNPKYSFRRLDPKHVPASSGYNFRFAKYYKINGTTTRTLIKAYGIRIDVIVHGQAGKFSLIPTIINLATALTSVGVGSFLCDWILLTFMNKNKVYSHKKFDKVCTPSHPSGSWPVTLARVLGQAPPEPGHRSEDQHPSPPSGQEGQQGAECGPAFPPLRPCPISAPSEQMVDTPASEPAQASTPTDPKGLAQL

SMILES | IC50 [1] | IC50 [2, 3] | IC50 [2]
Cc1cnc(-c2cc(OC[C@@H]3COCCN3C)cc(C(=O)N[C@H](C)c3ccc(C(F)(F)F)nc3)c2)s1 [Example 361, 3-{[(3S)-4-methylmorpholin-3-yl]methoxy}-5-(5-methyl-1,3-thiazol-2-yl)-N-{(1R)-1-[6-(trifluoromethyl)pyridin-3-yl]ethyl}benzamide] | 1250 nM | 14 nM | 
Cc1cnc(-c2cc(OC[C@@H]3COCCN3C)cc(C(=O)N[C@H](C)c3cnc(C(F)(F)F)nc3)c2)s1 [Example 362] | 1010 nM | 8 nM | 
Cc1cnc(-c2cc(OC[C@H]3COCCN3C)cc(C(=O)N[C@H](C)c3ccc(C(F)(F)F)nc3)c2)s1 [Example 363, 3-{[(3R)-4-methylmorpholin-3-yl]methoxy}-5-(5-methyl-1,3-thiazol-2-yl)-N-{(1R)-1-[6-(trifluoromethyl)pyridin-3-yl]ethyl}benzamide] | 717 nM |  | 12 nM
Cc1cnc(-c2cc(OCC3CC(F)CN3C)cc(C(=O)N[C@H](C)c3cnc(C(F)(F)F)nc3)c2)s1 (stereo partly drawn) [Example 364, 3-{[4-fluoro-1-methylpyrrolidin-2-yl]methoxy}-5-(5-methyl-1,3-thiazol-2-yl)-N-{(1R)-1-[2-(trifluoromethyl)pyrimidin-5-yl]ethyl}benzamide] | 943 nM | 16 nM | 
Cc1cnc(-c2cc(OCC3CC(F)CN3C)cc(C(=O)N[C@H](C)c3ccc(C(F)(F)F)nc3)c2)s1 (stereo partly drawn) [Example 365, 3-{[4-fluoro-1-methylpyrrolidin-2-yl]methoxy}-5-(5-methyl-1,3-thiazol-2-yl)-N-{(1R)-1-[6-(trifluoromethyl)pyridin-3-yl]ethyl}benzamide] | 1050 nM | 21 nM | 
Cc1cnc(-c2cc(OC[C@H]3CN(C)CCO3)cc(C(=O)N[C@H](C)c3ccc(C(F)(F)F)nc3)c2)s1 [Example 366, 3-{[(2R)-4-methylmorpholin-2-yl]methoxyl}-5-(5-methyl-1,3-thiazol-2-yl)-N-{(1R)-1-[6-(trifluoromethyl)pyridin-3-yl]ethyl}benzamide] | 977 nM | 18 nM | 
C[C@@H](NC(=O)c1cc(OC[C@H]2CN(C)CCO2)cc(-c2ncc(Cl)s2)c1)c1cnc(C(F)(F)F)nc1 [Example 367, 3-(5-chloro-1,3-thiazol-2-yl)-5-{[(2R)-4-methylmorpholin-2-yl]methoxy}-N-{(1R)-1-[2-(trifluoromethyl)pyrimidin-5-yl]ethyl}benzamide] | 506 nM | 13 nM | 
Cc1cnc(-c2cc(OC[C@@H]3CN(C)CCO3)cc(C(=O)NCc3cnc(C(F)(F)F)nc3)c2)s1 [Example 368, 3-{[(2S)-4-methylmorpholin-2-yl]methoxy}-5-(5-methyl-1,3-thiazol-2-yl)-N-{[2-(trifluoromethyl)pyrimidin-5-yl]methyl}benzamide] | 1090 nM | 84 nM | 
Cc1cnc(-c2cc(OC[C@H]3CN(C)CCO3)cc(C(=O)N[C@H](C)c3ccc(C(F)F)nc3)c2)s1 [Example 369, N-{(1R)-1-[6-(difluoromethyl)pyridin-3-yl]ethyl}-3-{[(2R)-4-methylmorpholin-2-yl]methoxy}-5-(5-methyl-1,3-thiazol-2-yl)benzamide] | 328 nM | 11 nM | 
Cc1cnc(-c2cc(OC[C@H]3CN(C)CCO3)cc(C(=O)N[C@H](C)c3ccc(C(F)(F)F)nn3)c2)s1 [Example 373, 3-{[(2R)-4-methylmorpholin-2-yl]methoxy}-5-(5-methyl-1,3-thiazol-2-yl)-N-{(1R)-1-[6-(trifluoromethyl)pyridazin-3-yl]ethyl}benzamide] | 2830 nM | 21 nM | 
Cc1cnc(-c2cc(OC[C@@H]3CN(C)CCO3)cc(C(=O)N[C@H](C)c3ccc(C(F)(F)F)nn3)c2)s1 [Example 374, 3-{[(2S)-4-methylmorpholin-2-yl]methoxy}-5-(5-methyl-1,3-thiazol-2-yl)-N-{(1R)-1-[6-(trifluoromethyl)pyridazin-3-yl]ethyl}benzamide] | 2560 nM | 55 nM | 

Second part, led by results:

IC50 [1] | IC50 [2, 3] | SMILES | IC50 [2]
1010 nM | 41 nM | Cc1cnc(-c2cc(OC[C@@H]3CN(C)CCO3)cc(C(=O)N[C@H](C)c3ccc(C(F)(F)F)nc3)c2)s1 [Example 370, 3-{[(2S)-4-methylmorpholin 2-yl]methoxy}-5-(5-methyl-1,3-thiazol-2-yl)-N-{(1R)-1-[6-(trifluoromethyl)pyridin-3-yl]ethyl}benzamide] | 
1170 nM | 24 nM | Cc1cnc(-c2cc(OCC3(F)CN(C)C3)cc(C(=O)N[C@H](C)c3cnc(C(F)(F)F)nc3)c2)s1 [Example 371, 3-[(3-fluoro-1-methylazetidin-3-yl}methoxy]-5-(5-methyl-1,3-thiazol-2-yl)-N-{(1R)-1-[2-(trifluoromethyl)pyrimidin-5-yl]ethyl}benzamide] | 
1210 nM | 19 nM | Cc1cnc(-c2cc(OC[C@H]3CN(C)CCO3)cc(C(=O)NCc3cnc(C(F)(F)F)nc3)c2)s1 [Example 372, 3-{[(2R)-4-methylmorpholin-2-yl]methoxy}-5-(5-methyl-1,3-thiazol-2-yl)-N-{[2-(trifluoromethyl)pyrimidin-5-yl]methyl}benzamide] | 
185 nM | 11 nM | CCc1cnc(-c2cc(OC[C@@H]3CN(C)CCO3)cc(C(=O)N[C@H](C)c3cnc(C(F)(F)F)nc3)c2)s1 [Example 375, 3-(5-ethyl-1,3-thiazol-2-yl)-5-{[(2S)-4-methylmorpholin-2-yl]methoxy}-N-{(1R)-1-[2-(trifluoromethyl)pyrimidin-5-yl]ethyl}benzamide] | 
898 nM | 32 nM | C[C@@H](NC(=O)c1cc(OC[C@@H]2CN(C)CCO2)cc(-c2ncc(Cl)s2)c1)c1cnc(C(F)(F)F)nc1 [Example 376, 3-(5-chloro-1,3-thiazol-2-yl)-5-{[(2S)-4-methylmorpholin-2-yl]methoxy}-N-{(1R)-1-[2-(trifluoromethyl)pyrimidin-5-yl]ethyl}benzamide] | 
273 nM | 5 nM | CCc1cnc(-c2cc(OC[C@H]3CN(C)CCO3)cc(C(=O)N[C@H](C)c3cnc(C(F)(F)F)nc3)c2)s1 [Example 377, 3-(5-ethyl-1,3-thiazol-2-yl)-5-{[(2R)-4-methylmorpholin-2-yl]methoxy}-N-{(1R)-1-[2-(trifluoromethyl)pyrimidin-5-yl]ethyl}benzamide] | 
3750 nM | 60 nM | Cc1cnc(-c2cc(OC[C@@H]3CCCN3C)cc(C(=O)N[C@H](C)c3cnc(C(F)(F)F)nc3)c2)s1 [Example 378, 3-{[(2S)-1-methylpyrrolidin-2-yl]methoxy}-5-(5-methyl-1,3-thiazol-2-yl)-N-{(1R)-1-[2-(trifluoromethyl)pyrimidin-5-yl]ethyl}benzamide] | 
2750 nM | 42 nM | Cc1cnc(-c2cc(OC[C@H]3CCCN3C)cc(C(=O)N[C@H](C)c3cnc(C(F)(F)F)nc3)c2)s1 [Example 379, 3-{[(2R)-1-methylpyrrolidin-2-yl]methoxy}-5 (5-methyl-1,3-thiazol-2-yl)-N-{(1R)-1-[2-(trifluoromethyl)pyrimidin-5-yl]ethyl}benzamide] | 
2880 nM | 32 nM | Cc1cnc(-c2cc(OCC3CCN(C)CC3)cc(C(=O)N[C@H](C)c3cnc(C(F)(F)F)nc3)c2)s1 [Example 380, 3-[(1-methylpiperidin-4-yl)methoxy]-5-(5-methyl-1,3-thiazol-2-yl)-N-{(1R)-1-[2-(trifluoromethyl)pyrimidin-5-yl]ethyl}benzamide] | 
954 nM | 16 nM | Cc1cnc(-c2cc(OC[C@H]3CN(C(C)C)CCO3)cc(C(=O)N[C@H](C)c3cnc(C(F)(F)F)nc3)c2)s1 [Example 381, 3-(5-methyl-1,3-thiazol-2-yl)-5-{[(2R)-4-(propan-2-yl)morpholin-2-yl]methoxy}-N-{(1R)-1-[2-(trifluoromethyl)pyrimidin-5-yl]ethyl}benzamide] | 
811 nM | 24 nM | Cc1cnc(-c2cc(OCC3(F)CN(C)C3)cc(C(=O)N[C@H](C)c3ccc(C(F)(F)F)nc3)c2)s1 [Example 386, 3-[(3-fluoro-1-methylazetidin-3-yl)methoxy]-5-(5-methyl-1,3-thiazol-2-yl)-N-{(1R)-1-[6-(trifluoromethyl)pyridin-3-yl]ethyl}benzamide] | 
461 nM | 19 nM | CCc1cnc(-c2cc(OCC3(F)CN(C)C3)cc(C(=O)N[C@H](C)c3ccc(C(F)(F)F)nc3)c2)s1 [Example 387, 3-(5-ethyl-1,3-thiazol-2-yl)-5-[(3-fluoro-1-methylazetidin-3-yl)methoxy]-N-{(1R)-1-[6-(trifluoromethyl)pyridin-3-yl]ethyl}benzamide] | 
1350 nM | 18 nM | Cc1cnc(-c2cc(OC[C@H]3COCCN3C)cc(C(=O)N[C@H](C)c3ccc(C(F)(F)F)nn3)c2)s1 [Example 388, 3-{[(3R)-4-methylmorpholin-3-yl]methoxy}-5-(5-methyl-1,3-thiazol-2-yl)-N-{(1R)-1-[6-(trifluoromethyl)pyridazin-3-yl]ethyl}benzamide] | 
1610 nM | 18 nM | Cc1cnc(-c2cc(OC[C@@H]3COCCN3C)cc(C(=O)N[C@H](C)c3ccc(C(F)(F)F)nn3)c2)s1 [Example 389, 3-{[(3S)-4-methylmorpholin-3-yl]methoxy}-5-(5-methyl-1,3-thiazol-2-yl)-N-{(1R)-1-[6-(trifluoromethyl)pyridazin-3-yl]ethyl}benzamide] | 
804 nM | 17 nM | CCN1CCO[C@@H](COc2cc(C(=O)N[C@H](C)c3cnc(C(F)(F)F)nc3)cc(-c3ncc(C)s3)c2)C1 [Example 390, 3-{[(2R)-4-ethylmorpholin-2-yl]methoxy}-5-(5-methyl-1,3-thiazol-2-yl)-N-{(1R)-1-[2-(trifluoromethyl)pyrimidin-5-yl]ethyl}benzamide] | 
